Literature values, collected in publication PMC11791199 (Scientific Reports, 2025).
Starred links: 1 amine or outer side, 2 acyl side, 3 side chain; linkers in the order of their positions; H or OH if unused. Positions of bridges follow the written chain, without caps; N, C: chain ends. Non-standard residues stand in square brackets, D forms with d. Residues, ends and D or L forms follow the SMILES beside them. *: point of attachment. Phe(3R-OH) = O=C([C@@H](N[*:1])[C@H](O[*:3])c1ccccc1)[*:2]; NMeTrp(4-OMe) = CN[C@@H](Cc1c[nH]c2cccc(OC)c12)C(=O)O; NMeaIle = CC[C@@H](C)[C@H](NC)C(=O)O; NMe2Val = CC(C)[C@@H](C(=O)*)N(C)C; NMeT = CN[C@H](C(=O)O)[C@@H](C)O; NMeL = CN[C@@H](CC(C)C)C(=O)O; NMeV = CN[C@H](C(=O)O)C(C)C

Tests used:
Details in all cases: cited from earlier work
ClpC1 = ClpC1 (Mycobacterium tuberculosis, UniProt P9WPC9)
Sequence of ClpC1 (P9WPC9 whole entry): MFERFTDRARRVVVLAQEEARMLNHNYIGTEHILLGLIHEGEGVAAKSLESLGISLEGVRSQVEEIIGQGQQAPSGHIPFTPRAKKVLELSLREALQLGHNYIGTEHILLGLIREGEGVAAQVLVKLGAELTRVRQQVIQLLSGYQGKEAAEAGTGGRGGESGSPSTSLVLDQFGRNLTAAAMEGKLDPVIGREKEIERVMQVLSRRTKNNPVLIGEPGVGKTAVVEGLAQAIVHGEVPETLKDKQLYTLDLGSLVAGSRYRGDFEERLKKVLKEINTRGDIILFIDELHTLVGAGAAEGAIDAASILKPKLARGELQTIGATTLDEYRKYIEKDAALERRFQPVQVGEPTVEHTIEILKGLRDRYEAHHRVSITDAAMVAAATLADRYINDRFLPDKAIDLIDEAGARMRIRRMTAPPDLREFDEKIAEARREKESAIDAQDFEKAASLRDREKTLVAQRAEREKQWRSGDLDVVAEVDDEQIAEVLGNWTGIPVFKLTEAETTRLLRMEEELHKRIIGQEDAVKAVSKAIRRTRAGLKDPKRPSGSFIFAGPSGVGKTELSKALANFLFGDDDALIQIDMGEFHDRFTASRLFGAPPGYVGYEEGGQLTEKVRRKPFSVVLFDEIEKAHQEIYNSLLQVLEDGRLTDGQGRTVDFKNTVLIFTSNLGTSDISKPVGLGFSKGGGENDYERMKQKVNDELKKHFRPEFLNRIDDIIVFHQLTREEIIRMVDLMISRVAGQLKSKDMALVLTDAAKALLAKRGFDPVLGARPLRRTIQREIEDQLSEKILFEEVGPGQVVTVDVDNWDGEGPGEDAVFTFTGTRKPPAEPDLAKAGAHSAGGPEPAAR

ClpC1P1P2 = ClpC1P1P2 (Mycobacterium tuberculosis, UniProt P9WPC9)
Sequence of ClpC1P1P2 (P9WPC9 whole entry): as above

tuberculosis = tested on: tuberculosis
ClpC1 NTD = ClpC1 NTD (Mycobacterium tuberculosis, UniProt P9WPC9)
Sequence of ClpC1 NTD (P9WPC9 2-144): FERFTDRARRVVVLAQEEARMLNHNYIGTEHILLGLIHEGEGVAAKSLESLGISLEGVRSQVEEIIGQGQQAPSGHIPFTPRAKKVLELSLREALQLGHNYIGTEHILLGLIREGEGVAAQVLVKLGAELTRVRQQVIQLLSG

Row | Molecule | effect on ATPase activity (ClpC1) | effect on FITC-casein degradation (ClpC1P1P2) | MIC value, times lower than that of rifampicin or isoniazid (tuberculosis) | affinity for ClpC1-NTD (ClpC1 NTD)
1 | CC[C@@H](C)[C@@H](C(=O)N[C@@H]1C(=O)N(C)[C@@H]([C@@H](C)O)C(=O)N[C@@H](C(C)C)C(=O)N(C)[C@@H](CC(C)C)C(=O)N[C@@H](C(C)C)C(=O)N(C)[C@@H](C(C)C)C(=O)N(C)[C@@H](Cc2c[nH]c3cccc(OC)c23)C(=O)N[C@@H](C(C)C)C(=O)N[C@@H]([C@H](O)c2ccccc2)C(=O)N[C@@H](C(C)C)C(=O)O[C@@H]1C)N(C)C(=O)[C@@H](NC(=O)[C@H](C(C)C)N(C)C)C(C)C [ecumicin] (NMe2Val-V[NMeaIle]T[NMeT]V[NMeL]V[NMeV][NMeTrp(4-OMe)]V[Phe(3R-OH)]V; ester 3-C) | strong activator | inhibitor | 50 times | 
2 | cyclomarin | very modest effects | very modest effects |  | nM affinity
